Results taken from patent US20240293359A1, “PROPHYLACTIC OR THERAPEUTIC DRUG FOR PARKINSON'S DISEASE” (Kyowa Pharma Chemical Co., Ltd., priority 2021, published 2024).
In brackets after ≈: the same amount, converted by molar mass. Blank lines part the entries; values can stand above or below the compound they belong to.

Experiments:
[1] = system: dopamine oxidation accelerated in the presence of Fe^3+; assay: Suppression test of dopamine oxidation accelerated in presence of iron ions; type: biochemical; settings: dopamine 2 mmol/L, Fe^3+ 2 mmol/L, hydrogen peroxide 1 moL/L, 0.2 M phosphate buffer pH 6.5, 25° C., 6 to 9 hours
Protocol: For a test, dopamine hydrochloride (DA·HCl), iron(III) nitrate 9-hydrate (Fe(NO3)3·9H2O) as Fe^3+ source, hydrogen peroxide solution as oxidant, glutathione trisulfide 2-hydrate, lipoic acid trisulfide, pantethine trisulfide, or N,N′-diacetyl-L-cysteine trisulfide as trisulfide compound were used.
A method of preparing each substance is as follows. • 10 mM DA-HCl aqueous solution: prepared by dissolving DA·HCl in purified water. • 20 mM Fe^3+ solution: prepared by dissolving Fe(NO3)3·9H2O in 5 mmol/L H2SO4. • 40 mM glutathione trisulfide solution: prepared by dissolving glutathione trisulfide 2-hydrate in 0.2 mol/L phosphate buffer solution (pH=6.5). • 40 mM lipoic acid trisulfide solution: prepared by dissolving lipoic acid trisulfide in 0.2 mol/L phosphate buffer solution (pH=6.5). • 400 mM pantethine trisulfide solution: prepared by dissolving pantethine trisulfide in 0.2 mol/L phosphate buffer solution (pH==6.5). • 40 mM N,N′-diacetyl-L-cysteine trisulfide: prepared by dissolving N,N′-diacetyl-L-cysteine trisulfide in 0.2 mol/L phosphate buffer solution (pH=6.5).
The pre-prepared preparation solution of each substance (mentioned above) and 0.2 M phosphate buffer solution (pH=6.5) were mixed in a 50 mL or 5 mL test tube to prepare 20 mL or 2 mL reaction solution so that each substance has the following concentration in the reaction solution. • Dopamine: 2 mmol/L • Fe^3+: 2 mmol/L • Hydrogen peroxide: 1 moL/L • Glutathione trisulfide: 3 concentrations (5, 10 or 20 mmol/L) • Lipoic acid trisulfide: 2 concentrations (10 or 20 mmol/L) • Pantethine trisulfide: 3 concentrations (100, 150 or 200 mmol/L) • N,N′-diacetyl-L-cysteine trisulfide: 3 concentrations (5, 10 or 20 mmol/L)
The reaction solution was stirred at 25° C., 500 rpm for 6 to 9 hours. The dopamine concentration in the reaction solution was quantified with high performance liquid chromatography (HPLC).
The conditions for HPLC is as follows. • Detector: Ultraviolet absorptiometer (measuring wavelength: 280 nm) • Column: Inertsil ODS-2 (4.6 mm I.D.×150 mm, 5 μm) • Column temperature: constant temperature around 35° C. • Mobile phase: prepared by adding 0.2 mol/L citric acid aqueous solution to 0.2 mol/L disodium hydrogenphosphate aqueous solution to adjust to pH 3.0. • Flow rate: 0.7 mL/min • Amount infused: 20 μL • Area measurement range: for 30 minutes after infusion of sample solution Preparation of sample solution: prepared by diluting 100 μL reaction solution 10-fold with water to form sample solution • Retention time: Dopamine (DA) approximately 7 minutes

[2] = Solubility in water at 20° C.; type: physicochemical; settings: free lipoic acid trisulfide

SMILES: O=C(O)CCCCC1CCSSS1 (racemic) [lipoic acid trisulfide]
suppression of dopamine oxidation in the presence of Fe^3+ (dopamine concentration by HPLC, FIG. 2) ([1]; lipoic acid trisulfide 10 or 20 mmol/L): suppressed the dopamine oxidation

SMILES: N[C@@H](CCC(=O)N[C@@H](CSSSC[C@H](NC(=O)CC[C@H](N)C(=O)O)C(=O)NCC(=O)O)C(=O)NCC(=O)O)C(=O)O [Glutathione trisulfide, glutathione trisulfide]
suppression of dopamine oxidation in the presence of Fe^3+ (dopamine concentration by HPLC, FIG. 1) ([1]; glutathione trisulfide 5, 10 or 20 mmol/L): suppressed the dopamine oxidation

solubility [2]: 300 µg/mL (≈ 1260 µM)
SMILES: O=C(O)CCCC[C@@H]1CCSSS1 [Lipoic acid trisulfide R body, (R)-lipoic acid trisulfide]

SMILES: CC(=O)N[C@@H](CSSSC[C@H](NC(C)=O)C(=O)O)C(=O)O [N,N′-diacetyl-L-cysteine trisulfide]
suppression of dopamine oxidation in the presence of Fe^3+ (dopamine concentration by HPLC, FIG. 4) ([1]; N,N′-diacetyl-L-cysteine trisulfide 5, 10 or 20 mmol/L): suppressed the dopamine oxidation

SMILES: CC(C)(CO)[C@@H](O)C(=O)NCCC(=O)NCCSSSCCNC(=O)CCNC(=O)[C@H](O)C(C)(C)CO [pantethine trisulfide]
suppression of dopamine oxidation in the presence of Fe^3+ (dopamine concentration by HPLC, FIG. 3) ([1]; pantethine trisulfide 100, 150 or 200 mmol/L): suppressed the dopamine oxidation
